Laboratory results from the supplement of paper PMC12076712.

Key:
Assay in all cases: pIC50, kinobeads binding competition
UniProt Q16659 = target: UniProt Q16659
Outline: (§1)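 Jurkat cells were exposed alive to nine compound concentrations (top 30 μM, 1:4 steps) or vehicle for 60 min at 37 °C and then lysed. In a second format, nine concentrations (top 30 μM, 1:5 steps) were incubated for 60 min at 4 °C with Jurkat lysate or with a 1:1:1:1 lysate mix of HEK293, K-562, HepG2 and placenta. Proteins captured on Kinobeads were digested and quantified by TMT10 LC-MS/MS. pIC50 values were derived from logistic dose-response fits (R drc package) of fold changes relative to vehicle, in biological duplicates.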

UniProt Q02763 = details: cell material: Lysate mix
Outline: as §1

UniProt Q16513 = target: UniProt Q16513
Chain of UniProt Q16513 (Q16513 whole entry, looked up): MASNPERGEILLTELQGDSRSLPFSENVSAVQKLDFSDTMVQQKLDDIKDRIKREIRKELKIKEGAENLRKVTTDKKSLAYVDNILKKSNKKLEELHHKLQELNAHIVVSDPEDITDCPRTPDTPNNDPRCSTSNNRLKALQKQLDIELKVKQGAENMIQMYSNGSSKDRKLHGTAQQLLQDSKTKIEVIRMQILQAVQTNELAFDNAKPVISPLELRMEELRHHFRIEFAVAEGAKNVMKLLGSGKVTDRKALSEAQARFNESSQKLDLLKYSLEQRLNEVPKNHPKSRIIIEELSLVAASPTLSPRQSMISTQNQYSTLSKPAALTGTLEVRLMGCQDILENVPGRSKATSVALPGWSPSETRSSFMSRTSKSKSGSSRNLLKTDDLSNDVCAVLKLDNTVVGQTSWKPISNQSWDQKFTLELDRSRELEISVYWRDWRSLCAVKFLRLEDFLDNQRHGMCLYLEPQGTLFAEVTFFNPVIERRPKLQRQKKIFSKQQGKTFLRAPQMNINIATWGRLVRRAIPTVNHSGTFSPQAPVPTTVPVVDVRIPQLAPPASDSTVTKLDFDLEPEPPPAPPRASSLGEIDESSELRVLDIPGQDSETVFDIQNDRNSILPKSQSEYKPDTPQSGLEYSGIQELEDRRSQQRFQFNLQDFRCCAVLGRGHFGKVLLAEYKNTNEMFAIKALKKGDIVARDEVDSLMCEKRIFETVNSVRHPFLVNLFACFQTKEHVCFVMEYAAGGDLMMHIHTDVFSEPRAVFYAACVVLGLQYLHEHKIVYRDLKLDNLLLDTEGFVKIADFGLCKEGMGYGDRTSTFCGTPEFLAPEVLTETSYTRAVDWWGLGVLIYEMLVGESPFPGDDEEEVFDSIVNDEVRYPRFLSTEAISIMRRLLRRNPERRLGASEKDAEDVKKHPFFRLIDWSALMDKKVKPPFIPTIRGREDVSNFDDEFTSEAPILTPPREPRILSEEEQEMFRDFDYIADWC
Outline: as §1

ACVR2A = ACVR2A (UniProt P27037); details: cell material: Lysate mix
Chain of ACVR2A (P27037 whole entry): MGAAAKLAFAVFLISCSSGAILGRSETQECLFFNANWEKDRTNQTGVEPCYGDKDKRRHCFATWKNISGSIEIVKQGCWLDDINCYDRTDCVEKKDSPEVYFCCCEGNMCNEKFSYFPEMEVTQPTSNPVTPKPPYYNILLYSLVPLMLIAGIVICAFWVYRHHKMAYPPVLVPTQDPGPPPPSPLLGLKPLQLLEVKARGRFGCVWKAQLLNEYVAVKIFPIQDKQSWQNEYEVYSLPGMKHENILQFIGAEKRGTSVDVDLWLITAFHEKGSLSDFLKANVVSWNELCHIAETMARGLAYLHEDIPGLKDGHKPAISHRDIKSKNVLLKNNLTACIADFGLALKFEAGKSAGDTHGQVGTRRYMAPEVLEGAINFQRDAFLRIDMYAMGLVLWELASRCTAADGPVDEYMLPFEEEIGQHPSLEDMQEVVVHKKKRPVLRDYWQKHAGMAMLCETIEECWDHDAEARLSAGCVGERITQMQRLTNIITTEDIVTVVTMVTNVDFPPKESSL
Outline: as §1

BMPR1B = BMPR1B (UniProt O00238); details: cell material: Lysate mix
Chain of BMPR1B (O00238 whole entry): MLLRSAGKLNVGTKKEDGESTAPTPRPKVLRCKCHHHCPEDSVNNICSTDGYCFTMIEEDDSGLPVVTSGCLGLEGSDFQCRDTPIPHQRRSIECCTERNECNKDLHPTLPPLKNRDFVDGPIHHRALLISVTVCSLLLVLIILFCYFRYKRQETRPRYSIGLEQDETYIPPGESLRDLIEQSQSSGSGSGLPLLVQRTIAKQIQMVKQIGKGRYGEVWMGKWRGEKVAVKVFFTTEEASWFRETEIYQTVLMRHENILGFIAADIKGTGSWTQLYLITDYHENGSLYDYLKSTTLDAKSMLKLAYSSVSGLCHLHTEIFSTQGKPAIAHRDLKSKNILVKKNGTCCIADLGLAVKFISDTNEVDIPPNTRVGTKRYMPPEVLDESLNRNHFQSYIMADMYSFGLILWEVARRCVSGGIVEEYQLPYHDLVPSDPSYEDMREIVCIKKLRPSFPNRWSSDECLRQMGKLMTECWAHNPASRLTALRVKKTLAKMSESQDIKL
Outline: as §1

UniProt Q9NYV4 = target: UniProt Q9NYV4
Chain of UniProt Q9NYV4 (Q9NYV4 whole entry, looked up): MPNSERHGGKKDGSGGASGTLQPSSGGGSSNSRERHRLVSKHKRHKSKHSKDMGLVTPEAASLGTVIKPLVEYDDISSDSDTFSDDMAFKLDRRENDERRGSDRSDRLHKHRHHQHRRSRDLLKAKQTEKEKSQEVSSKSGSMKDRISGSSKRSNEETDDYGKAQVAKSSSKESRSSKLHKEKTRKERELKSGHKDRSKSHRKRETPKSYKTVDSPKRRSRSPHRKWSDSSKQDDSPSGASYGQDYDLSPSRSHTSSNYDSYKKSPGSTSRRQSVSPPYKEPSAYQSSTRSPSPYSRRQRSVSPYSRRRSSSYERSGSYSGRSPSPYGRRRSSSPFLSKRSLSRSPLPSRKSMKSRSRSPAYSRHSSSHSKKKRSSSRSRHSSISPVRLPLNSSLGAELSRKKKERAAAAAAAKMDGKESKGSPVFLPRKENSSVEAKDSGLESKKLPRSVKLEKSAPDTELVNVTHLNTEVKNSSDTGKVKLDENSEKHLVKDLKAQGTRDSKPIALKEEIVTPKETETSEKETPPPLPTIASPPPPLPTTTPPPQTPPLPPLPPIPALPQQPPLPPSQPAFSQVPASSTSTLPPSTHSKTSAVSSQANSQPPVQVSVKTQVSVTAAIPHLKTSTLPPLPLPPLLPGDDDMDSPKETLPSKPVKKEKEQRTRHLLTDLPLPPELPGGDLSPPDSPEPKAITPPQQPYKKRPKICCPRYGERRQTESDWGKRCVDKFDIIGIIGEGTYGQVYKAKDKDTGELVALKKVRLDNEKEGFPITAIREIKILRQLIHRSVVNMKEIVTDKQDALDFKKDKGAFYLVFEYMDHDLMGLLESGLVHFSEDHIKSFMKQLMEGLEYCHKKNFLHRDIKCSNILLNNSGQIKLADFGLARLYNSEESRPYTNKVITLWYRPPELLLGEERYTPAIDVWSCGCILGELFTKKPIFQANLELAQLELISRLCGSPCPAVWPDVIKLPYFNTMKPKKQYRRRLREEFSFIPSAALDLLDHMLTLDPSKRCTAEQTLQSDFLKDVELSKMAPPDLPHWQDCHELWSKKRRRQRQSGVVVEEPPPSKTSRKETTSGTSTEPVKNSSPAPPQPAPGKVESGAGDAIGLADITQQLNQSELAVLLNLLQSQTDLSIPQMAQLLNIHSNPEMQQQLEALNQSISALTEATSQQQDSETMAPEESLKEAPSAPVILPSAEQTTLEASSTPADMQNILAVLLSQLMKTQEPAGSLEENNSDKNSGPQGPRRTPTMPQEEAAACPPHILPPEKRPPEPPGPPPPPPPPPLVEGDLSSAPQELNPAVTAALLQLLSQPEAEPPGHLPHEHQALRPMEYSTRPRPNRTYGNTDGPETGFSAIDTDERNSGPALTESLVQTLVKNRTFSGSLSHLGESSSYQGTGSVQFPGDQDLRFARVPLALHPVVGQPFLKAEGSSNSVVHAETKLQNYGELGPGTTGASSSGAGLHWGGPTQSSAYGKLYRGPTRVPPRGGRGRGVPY
Outline: as §1

MERTK = target: T1, MERTK (UniProt Q12866)
T1 sequence (whole entry): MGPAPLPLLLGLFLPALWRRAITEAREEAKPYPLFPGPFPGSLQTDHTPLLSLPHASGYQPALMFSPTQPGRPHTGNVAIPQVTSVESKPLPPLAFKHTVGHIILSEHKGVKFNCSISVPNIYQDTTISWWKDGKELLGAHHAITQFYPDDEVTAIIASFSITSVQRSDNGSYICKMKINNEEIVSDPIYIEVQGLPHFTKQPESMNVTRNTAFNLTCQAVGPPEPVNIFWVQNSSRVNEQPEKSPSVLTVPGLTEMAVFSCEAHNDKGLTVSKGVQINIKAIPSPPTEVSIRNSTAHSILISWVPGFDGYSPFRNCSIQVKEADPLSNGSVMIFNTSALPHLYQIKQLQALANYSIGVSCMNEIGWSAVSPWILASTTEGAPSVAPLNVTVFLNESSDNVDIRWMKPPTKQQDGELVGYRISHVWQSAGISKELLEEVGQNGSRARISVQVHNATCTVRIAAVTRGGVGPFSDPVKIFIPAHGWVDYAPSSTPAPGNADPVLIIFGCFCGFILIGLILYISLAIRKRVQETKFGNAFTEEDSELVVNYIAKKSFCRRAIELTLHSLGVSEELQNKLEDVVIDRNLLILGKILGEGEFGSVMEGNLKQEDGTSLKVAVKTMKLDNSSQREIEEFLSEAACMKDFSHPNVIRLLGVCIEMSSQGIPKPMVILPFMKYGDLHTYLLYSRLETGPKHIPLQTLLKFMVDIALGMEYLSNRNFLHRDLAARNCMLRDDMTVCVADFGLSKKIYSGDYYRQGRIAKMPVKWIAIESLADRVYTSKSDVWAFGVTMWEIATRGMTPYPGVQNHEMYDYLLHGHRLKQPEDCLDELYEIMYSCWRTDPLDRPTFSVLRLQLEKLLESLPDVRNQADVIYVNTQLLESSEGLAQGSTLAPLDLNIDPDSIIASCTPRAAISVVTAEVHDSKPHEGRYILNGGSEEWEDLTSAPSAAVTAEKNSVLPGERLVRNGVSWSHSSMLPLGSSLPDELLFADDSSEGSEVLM
Outline: as §1

MAP4K3 = target: T2, MAP4K3 (UniProt Q8IVH8)
T2 sequence (whole entry): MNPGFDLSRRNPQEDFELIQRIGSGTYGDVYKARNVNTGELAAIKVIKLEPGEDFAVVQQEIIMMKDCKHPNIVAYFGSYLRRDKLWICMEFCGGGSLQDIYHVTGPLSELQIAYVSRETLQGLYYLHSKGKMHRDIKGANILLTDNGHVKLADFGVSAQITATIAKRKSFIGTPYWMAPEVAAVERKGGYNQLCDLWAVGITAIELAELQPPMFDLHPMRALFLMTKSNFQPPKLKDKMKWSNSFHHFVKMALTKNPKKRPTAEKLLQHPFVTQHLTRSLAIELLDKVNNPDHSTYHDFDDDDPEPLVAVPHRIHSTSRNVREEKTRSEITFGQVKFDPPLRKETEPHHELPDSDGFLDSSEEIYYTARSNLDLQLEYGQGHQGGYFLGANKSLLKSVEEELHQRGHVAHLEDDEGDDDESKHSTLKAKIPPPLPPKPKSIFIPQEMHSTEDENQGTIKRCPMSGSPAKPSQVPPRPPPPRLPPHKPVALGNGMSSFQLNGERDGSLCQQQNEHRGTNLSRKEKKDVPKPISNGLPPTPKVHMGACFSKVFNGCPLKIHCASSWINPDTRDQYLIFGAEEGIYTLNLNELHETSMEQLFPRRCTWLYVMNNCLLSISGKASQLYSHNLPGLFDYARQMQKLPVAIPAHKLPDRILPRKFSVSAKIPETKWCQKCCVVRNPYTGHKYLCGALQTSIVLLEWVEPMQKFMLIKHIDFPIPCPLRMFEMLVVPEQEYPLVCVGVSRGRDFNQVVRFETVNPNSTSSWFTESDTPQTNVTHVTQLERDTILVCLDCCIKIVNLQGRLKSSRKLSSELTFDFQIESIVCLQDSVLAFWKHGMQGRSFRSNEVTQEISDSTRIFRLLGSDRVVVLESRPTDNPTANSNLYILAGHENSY
Outline: as §1

MARK2 = MARK2 (UniProt Q7KZI7)
Chain of MARK2 (Q7KZI7 whole entry): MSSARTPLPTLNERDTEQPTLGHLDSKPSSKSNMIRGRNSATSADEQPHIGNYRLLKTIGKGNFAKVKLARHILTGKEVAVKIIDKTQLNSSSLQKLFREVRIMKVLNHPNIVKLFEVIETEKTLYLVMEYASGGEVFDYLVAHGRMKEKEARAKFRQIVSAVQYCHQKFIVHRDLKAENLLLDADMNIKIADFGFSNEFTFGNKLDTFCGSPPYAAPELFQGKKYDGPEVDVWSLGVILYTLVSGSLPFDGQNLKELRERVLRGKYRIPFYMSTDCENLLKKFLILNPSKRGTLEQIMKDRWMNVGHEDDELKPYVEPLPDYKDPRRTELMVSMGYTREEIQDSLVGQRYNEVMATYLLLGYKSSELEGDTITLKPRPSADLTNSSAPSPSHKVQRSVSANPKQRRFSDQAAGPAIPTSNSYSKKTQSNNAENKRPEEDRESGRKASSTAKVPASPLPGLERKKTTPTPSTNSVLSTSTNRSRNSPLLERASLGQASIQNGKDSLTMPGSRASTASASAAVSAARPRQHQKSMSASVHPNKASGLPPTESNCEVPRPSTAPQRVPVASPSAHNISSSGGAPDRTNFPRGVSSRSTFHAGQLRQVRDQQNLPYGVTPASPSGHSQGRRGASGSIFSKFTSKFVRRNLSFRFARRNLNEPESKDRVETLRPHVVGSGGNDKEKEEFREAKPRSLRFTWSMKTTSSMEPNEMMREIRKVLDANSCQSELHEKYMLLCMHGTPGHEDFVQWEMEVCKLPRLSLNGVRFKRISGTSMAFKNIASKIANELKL
Outline: as §1

UniProt P49840 = target: UniProt P49840
Chain of UniProt P49840 (P49840 whole entry, looked up): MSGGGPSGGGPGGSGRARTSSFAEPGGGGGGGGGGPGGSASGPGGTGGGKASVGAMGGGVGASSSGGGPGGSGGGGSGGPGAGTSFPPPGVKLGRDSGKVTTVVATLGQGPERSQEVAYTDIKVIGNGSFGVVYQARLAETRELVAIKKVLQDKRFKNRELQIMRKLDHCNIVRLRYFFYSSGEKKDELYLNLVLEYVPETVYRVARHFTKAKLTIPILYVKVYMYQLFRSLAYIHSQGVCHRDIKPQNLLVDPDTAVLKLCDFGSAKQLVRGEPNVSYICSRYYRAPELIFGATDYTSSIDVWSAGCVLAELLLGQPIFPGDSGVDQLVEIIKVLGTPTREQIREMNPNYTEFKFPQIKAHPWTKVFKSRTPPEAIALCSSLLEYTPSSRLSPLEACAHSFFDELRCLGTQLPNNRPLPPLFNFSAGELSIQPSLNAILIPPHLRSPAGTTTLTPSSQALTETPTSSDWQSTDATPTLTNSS
Outline: as §1

| SMILES | pIC50 (UniProt Q16659; cell material: Lysate mix) | pIC50 (UniProt Q02763) | pIC50 (UniProt Q16513; cell material: Lysate mix) | pIC50 (ACVR2A) | pIC50 (BMPR1B) | pIC50 (UniProt Q9NYV4; cell material: Jurkat lysate) | pIC50 (UniProt Q9NYV4; cell material: Lysate mix) | pIC50 (MERTK; cell material: Lysate mix) | pIC50 (MAP4K3; cell material: Lysate mix) | pIC50 (MARK2; cell material: Lysate mix) | pIC50 (UniProt P49840; cell material: Lysate mix) | pIC50 (UniProt Q16659; cell material: Jurkat cells) | pIC50 (UniProt Q16659; cell material: Jurkat lysate) | pIC50 (UniProt Q16513; cell material: Jurkat lysate) | pIC50 (UniProt Q9NYV4; cell material: Jurkat cells) | pIC50 (MERTK; cell material: Jurkat cells) | pIC50 (MERTK; cell material: Jurkat lysate) | pIC50 (MAP4K3; cell material: Jurkat cells) | pIC50 (MAP4K3; cell material: Jurkat lysate) | pIC50 (MARK2; cell material: Jurkat cells) | pIC50 (MARK2; cell material: Jurkat lysate) | pIC50 (UniProt P49840; cell material: Jurkat cells) | pIC50 (UniProt P49840; cell material: Jurkat lysate) | pIC50 (UniProt Q16513; cell material: Jurkat cells) |
| --- | --- | --- | --- | --- | --- | --- | --- | --- | --- | --- | --- | --- | --- | --- | --- | --- | --- | --- | --- | --- | --- | --- | --- | --- |
| CCNC(=O)c1cc(Nc2cc(C3CC3)[nH]n2)nc(N2CCN(Cc3ccc(S(=O)(=O)F)cc3)CC2)n1 | < 4.52 | < 4.52 | < 4.52 | < 4.52 | 5.08 |  | 4.9 | 4.94 | 5.11 | < 4.52 | < 4.52 |  |  |  |  |  |  |  |  |  |  |  |  |  |
| CCNC(=O)c1cc(Nc2cc(C)[nH]n2)nc(N2CCN(Cc3ccc(S(=O)(=O)F)cc3)CC2)n1 | < 4.52 | < 4.52 | < 4.52 | < 4.52 | < 4.52 |  | < 4.52 | < 4.52 | < 4.52 | < 4.52 | < 4.52 |  |  |  |  |  |  |  |  |  |  |  |  |  |
| C#CCNC(=O)c1cc(Nc2cc(C3CC3)[nH]n2)nc(N2CCN(Cc3ccc(S(=O)(=O)F)cc3)CC2)n1 | < 4.52 | < 4.52 | < 4.52 | < 4.52 | 4.78 |  | 5.34 | 4.84 | 5.43 | < 4.52 | < 4.52 | < 4.52 | < 4.52 | < 4.52 | 6.33 | 6.29 | < 4.52 | 6.02 | 4.77 | 5.92 | < 4.52 | 5.04 | < 4.52 | 5.32 |
| C#CCNC(=O)c1cc(Nc2cc(C)[nH]n2)nc(N2CCN(Cc3ccc(S(=O)(=O)F)cc3)CC2)n1 | < 4.52 | < 4.52 | < 4.52 | < 4.52 | < 4.52 |  | < 4.52 | < 4.52 | 4.65 | < 4.52 | < 4.52 |  |  |  |  |  |  |  |  |  |  |  |  |  |

The next lines start with results.

| pIC50 (UniProt Q16659; cell material: Lysate mix) | pIC50 (UniProt Q02763) | pIC50 (UniProt Q16513; cell material: Lysate mix) | pIC50 (ACVR2A) | pIC50 (BMPR1B) | pIC50 (UniProt Q9NYV4; cell material: Jurkat lysate) | pIC50 (UniProt Q9NYV4; cell material: Lysate mix) | pIC50 (MERTK; cell material: Lysate mix) | pIC50 (MAP4K3; cell material: Lysate mix) | pIC50 (MARK2; cell material: Lysate mix) | pIC50 (UniProt P49840; cell material: Lysate mix) | SMILES | pIC50 (UniProt Q16659; cell material: Jurkat cells) | pIC50 (UniProt Q16659; cell material: Jurkat lysate) | pIC50 (UniProt Q16513; cell material: Jurkat lysate) | pIC50 (UniProt Q9NYV4; cell material: Jurkat cells) | pIC50 (MERTK; cell material: Jurkat cells) | pIC50 (MERTK; cell material: Jurkat lysate) | pIC50 (MAP4K3; cell material: Jurkat cells) | pIC50 (MAP4K3; cell material: Jurkat lysate) | pIC50 (MARK2; cell material: Jurkat cells) | pIC50 (MARK2; cell material: Jurkat lysate) | pIC50 (UniProt P49840; cell material: Jurkat cells) | pIC50 (UniProt P49840; cell material: Jurkat lysate) | pIC50 (UniProt Q16513; cell material: Jurkat cells) |
| --- | --- | --- | --- | --- | --- | --- | --- | --- | --- | --- | --- | --- | --- | --- | --- | --- | --- | --- | --- | --- | --- | --- | --- | --- |
| < 4.52 | < 4.52 | < 4.52 | < 4.52 | < 4.52 | < 4.52 | < 4.52 | < 4.52 | < 4.52 | < 4.52 | < 4.52 | O=C(NCCNC(=O)c1cc(Nc2cc(C3CC3)[nH]n2)nc(N2CCN(Cc3ccc(S(=O)(=O)F)cc3)CC2)n1)OC1CC/C=C/CCC1 (stereo unspecified) | < 4.52 | < 4.52 | < 4.52 | 5.85 | 6.04 | < 4.52 | 5.15 | < 4.52 | 5.04 | < 4.52 | < 4.52 | < 4.52 |  |
| < 4.52 | < 4.52 | < 4.52 | < 4.52 | < 4.52 |  | < 4.52 | < 4.52 | < 4.52 | < 4.52 | < 4.52 | Cc1cc(Nc2cc(C(=O)NCCNC(=O)OC3CC/C=C/CCC3)nc(N3CCN(Cc4ccc(S(=O)(=O)F)cc4)CC3)n2)n[nH]1 (stereo unspecified) |  |  |  |  |  |  |  |  |  |  |  |  |  |
